According to patent publication US20230107186A1, “COBICISTAT FOR PREVENTION AND/OR TREATMENT OF CORONAVIRUS INFECTIONS” (priority 2020, published 2023):
Where a SMILES comes first, the peptide text is derived from it. The star is where a group is joined. Cbz = O=C(OCc1ccccc1)*

What was measured:
SARS-CoV-2 [1] = assay: Inhibition of SARS-CoV-2 replication in cell lines (viral RNA by qPCR); assay type: cell-based
[2] = Viability of uninfected cell lines (MTT assay); assay type: cell-based, human; african green monkey; conditions: human (Calu-3, T84); African green monkey (Vero E6); uninfected Calu-3, T84, Vero E6; 48 h; MTT; read-out: half cytotoxic concentration (CC50) range
Protocol: (§1) D) Uninfected cell lines of lung (Calu-3), gut (T84) and kidney (Vero E6) origin were left untreated or treated with serial dilutions of cobicistat. Forty-eight hours post-treatment cellular viability was measured by MTT assay. Data, expressed as mean±SD of three independent experiments, were normalized to the untreated control and CC50 values were calculated by nonlinear regression.
(§2) Cell viability was evaluated by (3-[4,5-dimethylthiazol-2-yl]-2,5 diphenyl tetrazolium bromide) (MTT) assay and by crystal violet staining as previously described (Shytaj et al. 2020; Feoktistova, Geserick, and Leverkus 2016). Briefly, the MTT assay was conducted using the CellTiter 96® Non-Radioactive Cell Proliferation Assay (MTT) (Promega; Madison, Wis., USA). Cells were plated in a 96-well plate at a concentration of 3×10^6 cells/mL in 100 μl of medium. The MTT solution (15 μl) was added to each well and, after 2-4 h, the reaction was stopped by the addition of 100 μl of 10% SDS. Absorbance values were acquired using an Infinite 200 PRO (Tecan, Männedorf, Switzerland) multimode plate reader at 570 nm wavelength.
(§3) Data normality assumptions were tested by D'Agostino & Pearson normality test (for >3). […] Synergy scores were calculated using the SynergyFinder web-tool (Ianevski et al. 2020) using the Zero Interaction Potency (ZIP) model (Yadav et al. 2015).

[3] = system: Calu-3, T84 and Vero E6 cells; assay: Viability of uninfected cell lines (MTT assay); assay type: cell-based, human; african green monkey; conditions: cobicistat 5-10 μM
Protocol: as §1, §2, §3

3CLpro = 3CLpro (Severe acute respiratory syndrome coronavirus 2, UniProt P0DTD1); assay: 3CLpro FRET assay; assay type: biochemical, SARS-CoV-2
SARS-CoV-2 S-protein = SARS-CoV-2 S-protein (Severe acute respiratory syndrome coronavirus 2, UniProt P0DTC2); assay: Syncytia formation assay in Vero E6 cells transfected with the S-protein; assay type: cell-based
SARS-CoV-2 [4] = assay type: cell-based; conditions: cobicistat 5-10 μM; MTT and crystal violet; Calu-3, T84, Vero E6
HIV-1 protease = HIV-1 protease (Human immunodeficiency virus type 1 group M subtype B, UniProt P04585); conditions: read-out: EC50 against the HIV-1 protease; selleckchem product page; cited from earlier work
[5] = humans, standard dosing 150 mg/day; cited from earlier work
[6] = mice, 50 mg/Kg; cited from earlier work

| SMILES | viral RNA release in supernatant (SARS-CoV-2 [1]; Calu-3, Vero E6, T84, MOI 0.05 and 0.5, treated 2 h post-infection) | virus RNA amounts by qPCR, intracellular and supernatant (SARS-CoV-2 [1]; Calu-3 cells, time course, low micromolar concentrations) | IC50 (SARS-CoV-2 [1]; Severe acute respiratory syndrome coronavirus 2, 48 h, read-out: range of IC50 concentrations) [µM] | CC50 at 48 h [2] [µM] | tolerability by uninfected cells [3] | effect on catalytic activity of 3CLpro (3CLpro) | concentration range with effect in syncytia assay (SARS-CoV-2 S-protein) [µM] | syncytia formation (SARS-CoV-2 S-protein; 24 h post transfection) | viability of infected cells (SARS-CoV-2 [4]) | EC50 (HIV-1 protease) [µM] | maximum plasma concentrations [5] | plasma levels compared with in vitro IC50 and CC50 [6] |
| --- | --- | --- | --- | --- | --- | --- | --- | --- | --- | --- | --- | --- |
| CC(C)c1nc(CN(C)C(=O)N[C@@H](CCN2CCOCC2)C(=O)N[C@H](CC[C@H](Cc2ccccc2)NC(=O)OCc2cncs2)Cc2ccccc2)cs1 [Cobicistat, 1,3-thiazol-5-ylmethyl [(2R,5R)-5-{[(2S)-2-({[(2-isopropyl-1,3-thiazol-4-yl)methyl](methyl)carbamoyl}amino)-4-(morpholin-4-yl)butanoyl]amino}-1,6-diphenylhexan-2-yl]carbamate] | dose dependent effect in decreasing viral RNA release | dose dependent inhibitory effect | 0.58 to 8.76 | 38.7 to 53 | well tolerated | inactive | 5 to 10 | decreased syncytia formation | partially rescue viability of infected cells | > 30 | ≈ 1 μM | clearly above all IC50 values calculated in our experiments, while remaining below the CC50 concentrations |
| CC(C)C[C@@H](C=O)NC(=O)[C@H](CC(C)C)NC(=O)[C@H](CC(C)C)NC(=O)OCc1ccccc1 [MG-132] (Cbz-Leu-Leu-Leu-aldehyde) |  |  |  |  |  | potently reduced the catalytic activity |  |  |  |  |  |  |
